Assay [1] concerns amyloid-β (1-42) peptide. In words: IP-MS quantification of amyloid-β peptides in 7W cells (APPwt) and 7PA2 cells (APPV717F). To be noted: FIG. 22. The assay is classed as cell-based. How it is done: (§1) Compounds of the present invention were assayed to determine their effect on the total ration of amyloid-β (1-42) peptide in vitro using an assay protocol substantially similar to that described by Wang et al, J. Biol. Chem. 1996, 50:31894-31902, The Profile of Soluble Amyloid β Protein in Cultured Cell Media, the entirety of which is hereby incorporated herein by reference. This assay quantifies amyloid-β protein using immunoprecipitation and mass spectrometry (IP-MS).
Compound 6 was also assayed according to the method described in Wang et al, in 7W cells (APPwt) and 7PA2 cells (APPV717F). The APP717 mutations increase the relative amount of amyloid-β (1-42) peptide. In this assay, it was shown that compound 6 reduces amyloid-β (1-42) peptide while increasing amyloid-β (1-39) peptide.

The subject of assay [2] is amyloid-β (1-42) peptide. As to the kind of experiment: IP-MS quantification of amyloid-β peptides (Wang et al protocol). The assay is classed as cell-based. To be noted: in vitro, FIG. 21. On the procedure: as §1

Regarding `CC(=O)O[C@@H]([C@H]1C[C@@H](C)C2=C(O1)[C@H](O)[C@@]1(C)[C@@H]3CC[C@H]4C(C)(C)[C@@H](O[C@@H]5OC[C@@H](O)[C@H](O)[C@H]5O)CC[C@@]45C[C@@]35CC[C@]21C)C(C)(C)O` [Compound 6, 24-O-Acetylhydroshengmanol 3-β-D-xylopyranoside (delta-16,17)-enol ether], in the assay with amyloid-β (1-42) peptide [1], the “effect on amyloid-β (1-39) peptide” value is listed as “increasing” and the “effect on amyloid-β (1-42) peptide” value is listed as “reduces”. In the assay on amyloid-β (1-42) peptide [2], the “effect on amyloid-β (1-37) peptide” value was “increasing”, the “effect on amyloid-β (1-39) peptide” value is on record as “increasing” and the “effect on amyloid-β (1-42) peptide” value is “reduced”.

The record behind these values is patent US7851641B2, “Compounds useful for treating neurodegenerative disorders” (Satori Pharmaceuticals, Inc., priority 2005, dated 2010).
